# Assays:
# C57BL/6J-ob/ob mice [1] = conditions: nobiletin 200 mg/kg/day, Pioglitazone 30 mg/kg/day, 5 weeks
# Description: Diabetes model mice and the experimental system were as follows. As the diabetes model mice, 7 week age of male C57BL/6J-ob/ob (hereinafter, it was referred to as “ob/ob”) were purchased from Charles River Laboratories Japan Inc., and used as 10 mice/group.
# For the negative control group (from FIGS. 5 to 10, it was shown as Vehicle; hereinafter, it is referred to as “solvent administration group”), 0.3% of CMC aqueous solution was administrated orally for 5 weeks in everyday at the dosage of 0.01 mL/g body weight. For the positive control group (in FIGS. 5 to 10 and hereinafter, it was referred to as “P30 administrated group”), 3 mg of Pioglitazone was suspended in 0.3% CMC aqueous solution so as to be orally administrated at the dosage of 0.01 mL/g body weight for 5 weeks in everyday (dosage: 30 mg/kg body weight/day). […]
# The blood insulin level was measured as described in below. […] As lipids in plasma, concentrations of neutral fat (TG) and total cholesterol (T-CHO) were measured. Plasma insulin level was measured by using rebis insulin mouse (type U) (Shibayagi Co. Ltd.) based on the enzyme-immunoassay.
# [2] = system: adipose cells of the white adipose tissue; experiment: Diabetes model mice: size of adipose cells of the white adipose tissue; type: in vivo, mouse; conditions: 200 mg/kg of nobiletin
# male C57BL/6 mice [3] = experiment: Nobiletin, obesity-induced mice: body weight and ingestion amount; type: in vivo, mouse; conditions: for Body weight: HFD obesity-induced mice; for Ingestion amount, [Final Average]: average of 5 weeks; for Body weight, [Final gain]: gained amount during 0 to +5 weeks; for Ingestion amount: per mouse in 24 hrs
# Description: (§1) Six weeks age of male C57BL/6 mice were preliminary reared for 1 week (−9 to −8 week); then classified into 4 groups (n=9 in each group). LFD was given to one group and HFD was given to other 3 groups for 8 weeks (−8 to +5 week). From 8 weeks (15 week age) to 13 weeks, each group was given the following agents per os for 5 weeks in everyday. In below, the LFD administration group was defined that they ingested LFD; the HFD administration group is defined that they ingested the HFD without nobiletin. The compositions of the LFD and HFD are the same as those used in the Example 3.
# (§2) To both of the LFD administration group and the HFD administration group, 0.3% CMC aqueous solution was given at the amount of 0.01 mL/g body weight. […] The group to which nobiletin was given at the amount of 10 mg/kg/day was referred to as “No10 administration group; the abbreviated as HFD+No 10” and another group to which nobiletin was given at the amount of 100 mg/kg/day was referred to as “No 100 administration group; abbreviated as HFD+No 100”. The schedule of the feed ingestion and administration of the agent for the above-mentioned 4 groups were schematically shown in FIG. 12A.
# In the table, [Final gain] means gained amount during 0 to +5 weeks. […] By this, it was shown that nobiletin has the effect to suppress the body weight gain after the obesity induction by ingesting the high fat diet.
# The ingestion amount of each mouse was measured everyday from 1 to 8 day (0 week) in the beginning of the agent administration. The ingested amount in 24 hrs was measured per cage, and then the average ingestion amount (g) per mouse was calculated. The date of day 0 means that of the previous day of the administration beginning. After 2 weeks from the administration, it was measured twice a week. [Final average] means the average of 5 weeks.
# C57BL/6J-ob/ob mice [4] = experiment: Diabetes model mice: fasting blood glucose level; type: in vivo, mouse; conditions: nobiletin 200 mg/kg/day, Pioglitazone 30 mg/kg/day p.o.
# Description: Two weeks or 5 weeks from the beginning of the administration, the fasting blood glucose was measured (n=10). The measurement of the blood glucose level was carried out as the same as that of the example 1.
# male C57BL/6 mice [5] = experiment: Nobiletin, obesity-induced mice: tissue weight; type: in vivo, mouse; conditions: HFD obesity-induced mice
# Description: as §1, §2
# male C57BL/6 mice [6] = experiment: Nobiletin, obesity-induced mice: blood lipid, glucose and adiponectin level; type: in vivo, mouse; conditions: HFD; for Adipo *2 (Relative level of adiponectin): blood adiponectin to total weight of the white adipose tissue
# Description: After the completion of the experiment, the levels of the blood neutral fat, total cholesterol, glucose, and adiponectin in the fating state, and those of the blood neutral fat, total cholesterol, and glucose in satiety state were determined as the same as those in the Example 1. In the table 22, relative adiponectin level means the ratio of specific level of the blood adiponectin to the total weight of the white adipose tissue.
# [7] = nobiletin 10 mg/kg/day p.o. 5 weeks
# [8] = nobiletin 100 mg/kg/day p.o. 5 weeks
# [9] = nobiletin 10 mg/kg/day p.o., HFD
# [10] = nobiletin 100 mg/kg/day p.o., HFD
# [11] = Fasting state, nobiletin 10 mg/kg/day p.o. 5 weeks
# [12] = Fasting state, nobiletin 100 mg/kg/day p.o. 5 weeks
# [13] = Satiety state, nobiletin 10 mg/kg/day p.o. 5 weeks
# [14] = Satiety state, nobiletin 100 mg/kg/day p.o. 5 weeks
smiles,measurement,setting,value
COc1ccc(-c2cc(=O)c3c(OC)c(OC)c(OC)c(OC)c3o2)cc1OC [nobiletin],"Adiponectin level in blood, times higher than solvent administration group",C57BL/6J-ob/ob mice [1],not so high
same,shrinking of enlarged adipose cells of the white adipose tissue,[2],fails to shrink the adipose cells
same,Body weight,male C57BL/6 mice [3]; [7],33.14 ± 1.02 g
same,Body weight,"male C57BL/6 mice [3]; nobiletin 10 mg/kg/day p.o., 0 weeks after administration",31.07 ± 0.78 g
same,Body weight,"male C57BL/6 mice [3]; nobiletin 10 mg/kg/day p.o., 1 week",31.10 ± 0.72 g
same,Body weight,"male C57BL/6 mice [3]; nobiletin 10 mg/kg/day p.o., 2 weeks",32.10 ± 0.85 g
same,Body weight,"male C57BL/6 mice [3]; nobiletin 10 mg/kg/day p.o., 3 weeks",33.01 ± 1.01 g
same,Body weight,"male C57BL/6 mice [3]; nobiletin 10 mg/kg/day p.o., 4 weeks",32.58 ± 0.97 g
same,Body weight,male C57BL/6 mice [3]; [8],31.88 ± 0.68 g
same,Body weight,"male C57BL/6 mice [3]; nobiletin 100 mg/kg/day p.o., 0 weeks after administration",31.21 ± 0.60 g
same,Body weight,"male C57BL/6 mice [3]; nobiletin 100 mg/kg/day p.o., 1 week",29.93 ± 0.52 g
same,Body weight,"male C57BL/6 mice [3]; nobiletin 100 mg/kg/day p.o., 2 weeks",30.61 ± 0.60 g
same,Body weight,"male C57BL/6 mice [3]; nobiletin 100 mg/kg/day p.o., 3 weeks",31.62 ± 0.62 g
same,Body weight,"male C57BL/6 mice [3]; nobiletin 100 mg/kg/day p.o., 4 weeks",31.28 ± 0.59 g
same,"Ingestion amount, [Final Average]",male C57BL/6 mice [3]; [9],2.58 ± 0.1 g
same,"Ingestion amount, [Final Average]",male C57BL/6 mice [3]; [10],2.61 ± 0.08 g
same,"Body weight, [Final gain]",male C57BL/6 mice [3]; [9],2.08 ± 0.69 g
same,"Body weight, [Final gain]",male C57BL/6 mice [3]; [10],0.67 ± 0.37 g
same,Ingestion amount,"male C57BL/6 mice [3]; day 0 (previous day of administration beginning), nobiletin 10 mg/kg/day group",2.36 ± 0.04 g
same,Ingestion amount,"male C57BL/6 mice [3]; day 0 (previous day of administration beginning), nobiletin 100 mg/kg/day group",2.36 ± 0.04 g
same,Ingestion amount,"male C57BL/6 mice [3]; day 1, nobiletin 10 mg/kg/day p.o., HFD",2.28 ± 0.13 g
same,Ingestion amount,"male C57BL/6 mice [3]; day 1, nobiletin 100 mg/kg/day p.o., HFD",1.57 ± 0.09 g
same,Ingestion amount,"male C57BL/6 mice [3]; day 2, nobiletin 10 mg/kg/day p.o., HFD",1.85 ± 0.19 g
same,Ingestion amount,"male C57BL/6 mice [3]; day 2, nobiletin 100 mg/kg/day p.o., HFD",1.71 ± 0.13 g
same,Ingestion amount,"male C57BL/6 mice [3]; day 3, nobiletin 10 mg/kg/day p.o., HFD",1.85 ± 0.19 g
same,Ingestion amount,"male C57BL/6 mice [3]; day 3, nobiletin 100 mg/kg/day p.o., HFD",1.71 ± 0.13 g
same,Ingestion amount,"male C57BL/6 mice [3]; day 4, nobiletin 10 mg/kg/day p.o., HFD",2.27 ± 0.28 g
same,Ingestion amount,"male C57BL/6 mice [3]; day 4, nobiletin 100 mg/kg/day p.o., HFD",1.83 ± 0.15 g
same,Ingestion amount,"male C57BL/6 mice [3]; day 5, nobiletin 10 mg/kg/day p.o., HFD",1.78 ± 0.21 g
same,Ingestion amount,"male C57BL/6 mice [3]; day 5, nobiletin 100 mg/kg/day p.o., HFD",1.59 ± 0.20 g
same,Ingestion amount,"male C57BL/6 mice [3]; day 6, nobiletin 10 mg/kg/day p.o., HFD",2.36 ± 0.14 g
same,Ingestion amount,"male C57BL/6 mice [3]; day 6, nobiletin 100 mg/kg/day p.o., HFD",2.04 ± 0.09 g
same,Ingestion amount,"male C57BL/6 mice [3]; day 7, nobiletin 10 mg/kg/day p.o., HFD",2.99 ± 0.07 g
same,Ingestion amount,"male C57BL/6 mice [3]; day 7, nobiletin 100 mg/kg/day p.o., HFD",2.62 ± 0.12 g
same,Ingestion amount,"male C57BL/6 mice [3]; day 8, nobiletin 10 mg/kg/day p.o., HFD",2.12 ± 0.32 g
same,Ingestion amount,"male C57BL/6 mice [3]; day 8, nobiletin 100 mg/kg/day p.o., HFD",2.43 ± 0.03 g
same,Blood glucose level (fasting),C57BL/6J-ob/ob mice [4]; 0 week after administration,175.61 ± 11.44 mg/dL
same,Blood glucose level (fasting),C57BL/6J-ob/ob mice [4]; 2 weeks after administration,169.22 ± 13.22 mg/dL
same,Blood glucose level (fasting),C57BL/6J-ob/ob mice [4]; 5 weeks after administration,148.46 ± 7.56 mg/dL
same,"Tissue Weight, Kidney",male C57BL/6 mice [5]; [7],0.34 ± 0.02 g/100 g of body weight
same,"Tissue Weight, Liver",male C57BL/6 mice [5]; [7],1.28 ± 0.08 g/100 g of body weight
same,"Tissue Weight, White adipose tissue",male C57BL/6 mice [5]; [7],1.96 ± 0.28 g/100 g of body weight
same,"Tissue Weight, White adipose tissue [Periphery of genitals]",male C57BL/6 mice [5]; [7],1.23 ± 0.19 g/100 g of body weight
same,"Tissue Weight, White adipose tissue [Periphery of intestine]",male C57BL/6 mice [5]; [7],0.27 ± 0.04 g/100 g of body weight
same,"Tissue Weight, White adipose tissue [Periphery of kidney]",male C57BL/6 mice [5]; [7],0.47 ± 0.07 g/100 g of body weight
same,"Tissue Weight, Kidney",male C57BL/6 mice [5]; [8],0.35 ± 0.01 g/100 g of body weight
same,"Tissue Weight, Liver",male C57BL/6 mice [5]; [8],1.40 ± 0.04 g/100 g of body weight
same,"Tissue Weight, White adipose tissue",male C57BL/6 mice [5]; [8],1.52 ± 0.15 g/100 g of body weight
same,"Tissue Weight, White adipose tissue [Periphery of genitals]",male C57BL/6 mice [5]; [8],0.92 ± 0.09 g/100 g of body weight
same,"Tissue Weight, White adipose tissue [Periphery of intestine]",male C57BL/6 mice [5]; [8],0.20 ± 0.02 g/100 g of body weight
same,"Tissue Weight, White adipose tissue [Periphery of kidney]",male C57BL/6 mice [5]; [8],0.36 ± 0.03 g/100 g of body weight
same,"Blood level, Adipo *1 (adiponectin)",male C57BL/6 mice [6]; [11],7.19 ± 0.82 µg/mL
same,"Blood level, Glucose",male C57BL/6 mice [6]; [11],157.47 ± 10.54 mg/dL
same,"Blood level, T-CHO",male C57BL/6 mice [6]; [11],109.88 ± 9.09 mg/dL
same,"Blood level, TG",male C57BL/6 mice [6]; [11],79.99 ± 8.04 mg/dL
same,"Blood level, Adipo *1 (adiponectin)",male C57BL/6 mice [6]; [12],6.96 ± 0.99 µg/mL
same,"Blood level, Glucose",male C57BL/6 mice [6]; [12],128.49 ± 5.59 mg/dL
same,"Blood level, T-CHO",male C57BL/6 mice [6]; [12],131.55 ± 8.63 mg/dL
same,"Blood level, TG",male C57BL/6 mice [6]; [12],78.69 ± 6.57 mg/dL
same,"Blood level, Glucose",male C57BL/6 mice [6]; [13],224 ± 24.67 mg/dL
same,"Blood level, T-CHO",male C57BL/6 mice [6]; [13],147.47 ± 10.40 mg/dL
same,"Blood level, TG",male C57BL/6 mice [6]; [13],141.05 ± 12.25 mg/dL
same,"Blood level, Glucose",male C57BL/6 mice [6]; [14],224.76 ± 21.88 mg/dL
same,"Blood level, T-CHO",male C57BL/6 mice [6]; [14],169.24 ± 6.03 mg/dL
same,"Blood level, TG",male C57BL/6 mice [6]; [14],100.80 ± 14.95 mg/dL
same,Adipo *2 (Relative level of adiponectin),"male C57BL/6 mice [6]; Fasting state, nobiletin 10 mg/kg/day p.o.",3.87 ± 0.86 µg/mL/g
same,Adipo *2 (Relative level of adiponectin),"male C57BL/6 mice [6]; Fasting state, nobiletin 100 mg/kg/day p.o.",5.34 ± 0.97 µg/mL/g
